Experimental data: PMC8333062, “Chemical tools for epichaperome-mediated interactome dysfunctions of the central nervous system” (Nature Communications, 2021)

What was measured:
Assay in all cases: scanEDGE off-target screen
Format in all cases: binding
97 kinases [1] = target: T1, 97 kinases (Homo sapiens, UniProt Q15303); settings: read-out: %Ctrl ERBB4
T1 construct: purchased Ambit Biosciences (scanEDGE / KINOMEscan) scanEDGE 97 kinase panel; host or cells: T7 phage in E. coli BL21-derived host; remaining kinases in HEK-293 cells

97 kinases [2] = target: T2, 97 kinases (Homo sapiens, UniProt P80192); settings: read-out: %Ctrl MLK1
T2 construct: purchased Ambit Biosciences (scanEDGE / KINOMEscan) scanEDGE 97 kinase panel; host or cells: T7 phage in E. coli BL21-derived host; remaining kinases in HEK-293 cells

97 kinases [3] = target: T3, 97 kinases (Homo sapiens, UniProt P00533); settings: read-out: %Ctrl EGFR
T3 construct: purchased Ambit Biosciences (scanEDGE / KINOMEscan) scanEDGE 97 kinase panel; host or cells: T7 phage in E. coli BL21-derived host; remaining kinases in HEK-293 cells

97 kinases [4] = target: T4, 97 kinases (Homo sapiens, UniProt P10721); settings: read-out: %Ctrl KIT
T4 construct: purchased Ambit Biosciences (scanEDGE / KINOMEscan) scanEDGE 97 kinase panel; host or cells: T7 phage in E. coli BL21-derived host; remaining kinases in HEK-293 cells

97 kinases [5] = target: T5, 97 kinases (Homo sapiens, UniProt P35968); settings: read-out: %Ctrl VEGFR2
T5 construct: purchased Ambit Biosciences (scanEDGE / KINOMEscan) scanEDGE 97 kinase panel; host or cells: T7 phage in E. coli BL21-derived host; remaining kinases in HEK-293 cells

97 kinases [6] = target: T6, 97 kinases (Homo sapiens, UniProt P07949); settings: read-out: %Ctrl RET
T6 construct: purchased Ambit Biosciences (scanEDGE / KINOMEscan) scanEDGE 97 kinase panel; host or cells: T7 phage in E. coli BL21-derived host; remaining kinases in HEK-293 cells

97 kinases [7] = target: T7, 97 kinases (Homo sapiens, UniProt Q9BUB5); settings: read-out: %Ctrl MKNK1
T7 construct: purchased Ambit Biosciences (scanEDGE / KINOMEscan) scanEDGE 97 kinase panel; host or cells: T7 phage in E. coli BL21-derived host; remaining kinases in HEK-293 cells

97 kinases [8] = target: T8, 97 kinases (Homo sapiens, UniProt P29597); settings: read-out: %Ctrl TYK2(JH1domain-catalytic)
T8 construct: purchased Ambit Biosciences (scanEDGE / KINOMEscan) scanEDGE 97 kinase panel; host or cells: T7 phage in E. coli BL21-derived host; remaining kinases in HEK-293 cells

97 kinases [9] = target: T9, 97 kinases (Homo sapiens, UniProt Q8IYT8); settings: read-out: %Ctrl ULK2
T9 construct: purchased Ambit Biosciences (scanEDGE / KINOMEscan) scanEDGE 97 kinase panel; host or cells: T7 phage in E. coli BL21-derived host; remaining kinases in HEK-293 cells

97 kinases [10] = target: T10, 97 kinases (Homo sapiens, UniProt P24941); settings: read-out: %Ctrl CDK2
T10 construct: purchased Ambit Biosciences (scanEDGE / KINOMEscan) scanEDGE 97 kinase panel; host or cells: T7 phage in E. coli BL21-derived host; remaining kinases in HEK-293 cells

97 kinases [11] = target: T11, 97 kinases (Homo sapiens, UniProt P07333); settings: read-out: %Ctrl CSF1R
T11 construct: purchased Ambit Biosciences (scanEDGE / KINOMEscan) scanEDGE 97 kinase panel; host or cells: T7 phage in E. coli BL21-derived host; remaining kinases in HEK-293 cells

97 kinases [12] = target: T12, 97 kinases (Homo sapiens, UniProt P27448); settings: read-out: %Ctrl MARK3
T12 construct: purchased Ambit Biosciences (scanEDGE / KINOMEscan) scanEDGE 97 kinase panel; host or cells: T7 phage in E. coli BL21-derived host; remaining kinases in HEK-293 cells

97 kinases [13] = target: T13, 97 kinases (Homo sapiens, UniProt Q16539); settings: read-out: %Ctrl p38-alpha
T13 construct: purchased Ambit Biosciences (scanEDGE / KINOMEscan) scanEDGE 97 kinase panel; host or cells: T7 phage in E. coli BL21-derived host; remaining kinases in HEK-293 cells

97 kinases [14] = target: T14, 97 kinases (Homo sapiens, UniProt O96013); settings: read-out: %Ctrl PAK4
T14 construct: purchased Ambit Biosciences (scanEDGE / KINOMEscan) scanEDGE 97 kinase panel; host or cells: T7 phage in E. coli BL21-derived host; remaining kinases in HEK-293 cells

97 kinases [15] = target: T15, 97 kinases (Homo sapiens, UniProt Q8NI60); settings: read-out: %Ctrl ADCK3
T15 construct: purchased Ambit Biosciences (scanEDGE / KINOMEscan) scanEDGE 97 kinase panel; host or cells: T7 phage in E. coli BL21-derived host; remaining kinases in HEK-293 cells

97 kinases [16] = target: T16, 97 kinases (Homo sapiens, UniProt O75116); settings: read-out: %Ctrl ROCK2
T16 construct: purchased Ambit Biosciences (scanEDGE / KINOMEscan) scanEDGE 97 kinase panel; host or cells: T7 phage in E. coli BL21-derived host; remaining kinases in HEK-293 cells

97 kinases [17] = target: T17, 97 kinases (Homo sapiens, UniProt P04629); settings: read-out: %Ctrl TRKA
T17 construct: purchased Ambit Biosciences (scanEDGE / KINOMEscan) scanEDGE 97 kinase panel; host or cells: T7 phage in E. coli BL21-derived host; remaining kinases in HEK-293 cells

97 kinases [18] = target: T18, 97 kinases (Homo sapiens, UniProt P36896); settings: read-out: %Ctrl ACVR1B
T18 construct: purchased Ambit Biosciences (scanEDGE / KINOMEscan) scanEDGE 97 kinase panel; host or cells: T7 phage in E. coli BL21-derived host; remaining kinases in HEK-293 cells

97 kinases [19] = target: T19, 97 kinases (Homo sapiens, UniProt P08581); settings: read-out: %Ctrl MET
T19 construct: purchased Ambit Biosciences (scanEDGE / KINOMEscan) scanEDGE 97 kinase panel; host or cells: T7 phage in E. coli BL21-derived host; remaining kinases in HEK-293 cells

97 kinases [20] = target: T20, 97 kinases (Homo sapiens, UniProt P36897); settings: read-out: %Ctrl TGFBR1
T20 construct: purchased Ambit Biosciences (scanEDGE / KINOMEscan) scanEDGE 97 kinase panel; host or cells: T7 phage in E. coli BL21-derived host; remaining kinases in HEK-293 cells

97 kinases [21] = target: T21, 97 kinases (Homo sapiens, UniProt O14757); settings: read-out: %Ctrl CHEK1
T21 construct: purchased Ambit Biosciences (scanEDGE / KINOMEscan) scanEDGE 97 kinase panel; host or cells: T7 phage in E. coli BL21-derived host; remaining kinases in HEK-293 cells

97 kinases [22] = target: T22, 97 kinases (Homo sapiens, UniProt Q00536); settings: read-out: %Ctrl PCTK1
T22 construct: purchased Ambit Biosciences (scanEDGE / KINOMEscan) scanEDGE 97 kinase panel; host or cells: T7 phage in E. coli BL21-derived host; remaining kinases in HEK-293 cells

97 kinases [23] = target: T23, 97 kinases (Homo sapiens, UniProt P48730); settings: read-out: %Ctrl CSNK1D
T23 construct: purchased Ambit Biosciences (scanEDGE / KINOMEscan) scanEDGE 97 kinase panel; host or cells: T7 phage in E. coli BL21-derived host; remaining kinases in HEK-293 cells

97 kinases [24] = target: T24, 97 kinases (Homo sapiens, UniProt Q02763); settings: read-out: %Ctrl TIE2
T24 construct: purchased Ambit Biosciences (scanEDGE / KINOMEscan) scanEDGE 97 kinase panel; host or cells: T7 phage in E. coli BL21-derived host; remaining kinases in HEK-293 cells

97 kinases [25] = target: T25, 97 kinases (Homo sapiens, UniProt P29317); settings: read-out: %Ctrl EPHA2
T25 construct: purchased Ambit Biosciences (scanEDGE / KINOMEscan) scanEDGE 97 kinase panel; host or cells: T7 phage in E. coli BL21-derived host; remaining kinases in HEK-293 cells

97 kinases [26] = target: T26, 97 kinases (Homo sapiens, UniProt P10721, T670I/V559D); settings: read-out: %Ctrl KIT(V559D,T670I)
T26 construct: purchased Ambit Biosciences (scanEDGE / KINOMEscan) scanEDGE 97 kinase panel; host or cells: T7 phage in E. coli BL21-derived host; remaining kinases in HEK-293 cells

97 kinases [27] = target: T27, 97 kinases (Homo sapiens, UniProt Q13153); settings: read-out: %Ctrl PAK1
T27 construct: purchased Ambit Biosciences (scanEDGE / KINOMEscan) scanEDGE 97 kinase panel; host or cells: T7 phage in E. coli BL21-derived host; remaining kinases in HEK-293 cells

97 kinases [28] = target: T28, 97 kinases (Homo sapiens, UniProt P31749); settings: read-out: %Ctrl AKT1
T28 construct: purchased Ambit Biosciences (scanEDGE / KINOMEscan) scanEDGE 97 kinase panel; host or cells: T7 phage in E. coli BL21-derived host; remaining kinases in HEK-293 cells

97 kinases [29] = target: T29, 97 kinases (Homo sapiens, UniProt Q96GD4); settings: read-out: %Ctrl AURKB
T29 construct: purchased Ambit Biosciences (scanEDGE / KINOMEscan) scanEDGE 97 kinase panel; host or cells: T7 phage in E. coli BL21-derived host; remaining kinases in HEK-293 cells

97 kinases [30] = target: T30, 97 kinases (Homo sapiens, UniProt Q9H4B4); settings: read-out: %Ctrl PLK3
T30 construct: purchased Ambit Biosciences (scanEDGE / KINOMEscan) scanEDGE 97 kinase panel; host or cells: T7 phage in E. coli BL21-derived host; remaining kinases in HEK-293 cells

97 kinases [31] = target: T31, 97 kinases (Homo sapiens, UniProt P17612); settings: read-out: %Ctrl PKAC-alpha
T31 construct: purchased Ambit Biosciences (scanEDGE / KINOMEscan) scanEDGE 97 kinase panel; host or cells: T7 phage in E. coli BL21-derived host; remaining kinases in HEK-293 cells

97 kinases [32] = target: T32, 97 kinases (Homo sapiens, UniProt P21802); settings: read-out: %Ctrl FGFR2
T32 construct: purchased Ambit Biosciences (scanEDGE / KINOMEscan) scanEDGE 97 kinase panel; host or cells: T7 phage in E. coli BL21-derived host; remaining kinases in HEK-293 cells

97 kinases [33] = target: T33, 97 kinases (Homo sapiens, UniProt P42336); settings: read-out: %Ctrl PIK3CA
T33 construct: purchased Ambit Biosciences (scanEDGE / KINOMEscan) scanEDGE 97 kinase panel; host or cells: T7 phage in E. coli BL21-derived host; remaining kinases in HEK-293 cells

97 kinases [34] = target: T34, 97 kinases (Homo sapiens, UniProt P78368); settings: read-out: %Ctrl CSNK1G2
T34 construct: purchased Ambit Biosciences (scanEDGE / KINOMEscan) scanEDGE 97 kinase panel; host or cells: T7 phage in E. coli BL21-derived host; remaining kinases in HEK-293 cells

97 kinases [35] = target: T35, 97 kinases (Homo sapiens, UniProt P11309); settings: read-out: %Ctrl PIM1
T35 construct: purchased Ambit Biosciences (scanEDGE / KINOMEscan) scanEDGE 97 kinase panel; host or cells: T7 phage in E. coli BL21-derived host; remaining kinases in HEK-293 cells

97 kinases [36] = target: T36, 97 kinases (Homo sapiens, UniProt Q9BXA7); settings: read-out: %Ctrl TSSK1B
T36 construct: purchased Ambit Biosciences (scanEDGE / KINOMEscan) scanEDGE 97 kinase panel; host or cells: T7 phage in E. coli BL21-derived host; remaining kinases in HEK-293 cells

97 kinases [37] = target: T37, 97 kinases (Homo sapiens, UniProt O14965); settings: read-out: %Ctrl AURKA
T37 construct: purchased Ambit Biosciences (scanEDGE / KINOMEscan) scanEDGE 97 kinase panel; host or cells: T7 phage in E. coli BL21-derived host; remaining kinases in HEK-293 cells

97 kinases [38] = target: T38, 97 kinases (Homo sapiens, UniProt O00750); settings: read-out: %Ctrl PIK3C2B
T38 construct: purchased Ambit Biosciences (scanEDGE / KINOMEscan) scanEDGE 97 kinase panel; host or cells: T7 phage in E. coli BL21-derived host; remaining kinases in HEK-293 cells

T19 sequence (P08581 25-1390): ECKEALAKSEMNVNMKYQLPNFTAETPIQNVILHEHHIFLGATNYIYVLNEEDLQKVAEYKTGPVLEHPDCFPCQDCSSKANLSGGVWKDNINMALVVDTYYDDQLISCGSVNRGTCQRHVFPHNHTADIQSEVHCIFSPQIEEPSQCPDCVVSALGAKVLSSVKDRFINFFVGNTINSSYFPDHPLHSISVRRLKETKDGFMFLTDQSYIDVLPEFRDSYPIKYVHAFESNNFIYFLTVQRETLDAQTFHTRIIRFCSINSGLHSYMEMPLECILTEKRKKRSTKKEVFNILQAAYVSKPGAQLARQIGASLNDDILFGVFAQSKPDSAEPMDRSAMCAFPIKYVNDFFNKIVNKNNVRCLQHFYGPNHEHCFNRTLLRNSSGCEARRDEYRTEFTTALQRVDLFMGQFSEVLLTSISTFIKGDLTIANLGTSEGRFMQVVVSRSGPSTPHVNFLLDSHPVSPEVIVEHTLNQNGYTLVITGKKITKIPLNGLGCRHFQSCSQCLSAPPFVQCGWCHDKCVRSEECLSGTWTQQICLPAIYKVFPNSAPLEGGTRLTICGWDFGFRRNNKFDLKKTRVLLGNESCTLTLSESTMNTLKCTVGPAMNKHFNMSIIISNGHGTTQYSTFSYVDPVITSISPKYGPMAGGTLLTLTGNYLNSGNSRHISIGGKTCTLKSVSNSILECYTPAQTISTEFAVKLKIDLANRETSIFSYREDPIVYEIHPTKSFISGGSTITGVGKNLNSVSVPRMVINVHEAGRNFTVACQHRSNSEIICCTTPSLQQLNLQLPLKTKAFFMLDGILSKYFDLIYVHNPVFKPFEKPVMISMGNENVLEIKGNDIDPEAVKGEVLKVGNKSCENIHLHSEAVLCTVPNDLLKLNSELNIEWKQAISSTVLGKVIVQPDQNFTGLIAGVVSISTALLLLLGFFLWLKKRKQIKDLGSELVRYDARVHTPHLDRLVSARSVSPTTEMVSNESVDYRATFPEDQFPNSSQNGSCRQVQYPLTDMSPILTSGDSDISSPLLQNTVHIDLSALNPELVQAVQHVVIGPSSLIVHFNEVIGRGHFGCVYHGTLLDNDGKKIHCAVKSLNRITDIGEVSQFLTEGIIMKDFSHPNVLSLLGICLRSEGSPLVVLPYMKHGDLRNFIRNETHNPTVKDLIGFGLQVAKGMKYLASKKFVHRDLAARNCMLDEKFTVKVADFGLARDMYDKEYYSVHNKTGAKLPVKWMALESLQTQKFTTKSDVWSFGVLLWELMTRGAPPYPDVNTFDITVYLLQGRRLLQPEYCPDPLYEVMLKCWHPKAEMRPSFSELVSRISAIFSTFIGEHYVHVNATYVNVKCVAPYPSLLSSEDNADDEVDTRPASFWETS
T24 sequence (Q02763 23-1124): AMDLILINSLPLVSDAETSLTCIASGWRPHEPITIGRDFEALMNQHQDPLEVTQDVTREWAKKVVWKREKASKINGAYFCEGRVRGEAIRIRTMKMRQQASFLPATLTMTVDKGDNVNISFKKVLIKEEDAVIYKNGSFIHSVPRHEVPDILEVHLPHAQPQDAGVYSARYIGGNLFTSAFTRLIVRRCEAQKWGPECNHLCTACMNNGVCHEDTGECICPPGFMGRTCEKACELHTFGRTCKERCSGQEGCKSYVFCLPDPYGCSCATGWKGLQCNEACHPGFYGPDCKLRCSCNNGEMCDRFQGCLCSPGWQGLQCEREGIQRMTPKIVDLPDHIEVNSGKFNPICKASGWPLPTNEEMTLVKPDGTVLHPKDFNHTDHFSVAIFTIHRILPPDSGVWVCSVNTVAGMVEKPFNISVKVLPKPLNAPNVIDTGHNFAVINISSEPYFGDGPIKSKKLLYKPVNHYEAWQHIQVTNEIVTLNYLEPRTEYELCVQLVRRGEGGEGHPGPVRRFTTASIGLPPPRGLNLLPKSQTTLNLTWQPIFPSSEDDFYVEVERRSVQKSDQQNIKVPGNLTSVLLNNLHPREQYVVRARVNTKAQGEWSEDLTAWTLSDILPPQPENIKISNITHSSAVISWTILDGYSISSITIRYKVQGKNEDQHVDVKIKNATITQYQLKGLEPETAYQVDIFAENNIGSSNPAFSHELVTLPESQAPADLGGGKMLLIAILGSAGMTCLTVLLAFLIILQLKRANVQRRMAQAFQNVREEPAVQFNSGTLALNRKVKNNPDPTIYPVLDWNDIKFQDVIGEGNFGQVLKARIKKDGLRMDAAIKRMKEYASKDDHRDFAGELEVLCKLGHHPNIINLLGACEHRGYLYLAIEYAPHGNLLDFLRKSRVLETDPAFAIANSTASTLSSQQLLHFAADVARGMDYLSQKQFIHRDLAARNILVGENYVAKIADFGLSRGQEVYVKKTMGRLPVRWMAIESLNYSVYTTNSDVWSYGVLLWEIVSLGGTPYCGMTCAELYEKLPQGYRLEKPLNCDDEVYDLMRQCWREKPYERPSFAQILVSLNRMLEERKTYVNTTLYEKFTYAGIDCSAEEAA
T2 sequence (P80192 whole entry): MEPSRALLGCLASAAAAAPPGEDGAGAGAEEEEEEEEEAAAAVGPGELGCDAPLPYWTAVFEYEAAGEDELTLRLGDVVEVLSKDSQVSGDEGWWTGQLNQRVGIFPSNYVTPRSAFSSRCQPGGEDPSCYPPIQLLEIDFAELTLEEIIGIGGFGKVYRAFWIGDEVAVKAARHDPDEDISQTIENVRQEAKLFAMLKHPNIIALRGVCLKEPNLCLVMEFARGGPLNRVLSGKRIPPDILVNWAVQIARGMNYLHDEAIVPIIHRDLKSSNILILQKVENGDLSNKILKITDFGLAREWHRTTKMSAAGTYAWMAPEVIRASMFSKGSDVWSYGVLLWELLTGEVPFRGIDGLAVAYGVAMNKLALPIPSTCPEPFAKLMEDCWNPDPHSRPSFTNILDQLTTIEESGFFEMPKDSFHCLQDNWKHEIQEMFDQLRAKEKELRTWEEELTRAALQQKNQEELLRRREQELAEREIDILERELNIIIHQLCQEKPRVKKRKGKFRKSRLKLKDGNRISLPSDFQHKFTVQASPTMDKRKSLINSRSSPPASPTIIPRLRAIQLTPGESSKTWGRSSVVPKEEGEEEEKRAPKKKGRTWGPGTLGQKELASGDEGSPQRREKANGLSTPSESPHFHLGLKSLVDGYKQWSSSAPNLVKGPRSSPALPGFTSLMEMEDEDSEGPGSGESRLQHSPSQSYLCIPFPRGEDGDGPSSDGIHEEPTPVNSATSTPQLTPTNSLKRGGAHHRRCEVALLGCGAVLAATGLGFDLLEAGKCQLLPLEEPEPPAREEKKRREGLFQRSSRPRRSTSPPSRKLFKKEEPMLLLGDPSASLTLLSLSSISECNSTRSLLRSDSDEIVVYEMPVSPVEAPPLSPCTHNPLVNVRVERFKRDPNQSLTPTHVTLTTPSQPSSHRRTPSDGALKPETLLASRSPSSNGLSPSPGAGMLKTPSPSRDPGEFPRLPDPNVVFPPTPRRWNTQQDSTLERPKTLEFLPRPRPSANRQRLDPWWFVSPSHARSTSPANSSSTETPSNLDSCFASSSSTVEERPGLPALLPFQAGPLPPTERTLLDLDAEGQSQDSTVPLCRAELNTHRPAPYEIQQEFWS
T27 sequence (Q13153 whole entry): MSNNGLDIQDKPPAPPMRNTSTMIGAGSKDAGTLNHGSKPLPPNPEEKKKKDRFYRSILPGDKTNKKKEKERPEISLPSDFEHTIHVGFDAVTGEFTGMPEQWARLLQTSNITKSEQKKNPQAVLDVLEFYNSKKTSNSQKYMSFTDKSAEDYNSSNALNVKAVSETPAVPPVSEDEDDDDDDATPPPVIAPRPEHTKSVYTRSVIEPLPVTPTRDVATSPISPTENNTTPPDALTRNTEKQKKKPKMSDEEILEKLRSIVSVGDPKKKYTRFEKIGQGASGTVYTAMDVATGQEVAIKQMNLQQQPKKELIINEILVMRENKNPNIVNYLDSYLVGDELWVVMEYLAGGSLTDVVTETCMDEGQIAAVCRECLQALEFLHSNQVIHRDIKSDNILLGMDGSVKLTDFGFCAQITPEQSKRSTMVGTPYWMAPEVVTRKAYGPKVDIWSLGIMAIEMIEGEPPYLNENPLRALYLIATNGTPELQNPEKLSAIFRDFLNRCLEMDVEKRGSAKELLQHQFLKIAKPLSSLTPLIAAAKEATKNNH
T35 sequence (P11309 whole entry): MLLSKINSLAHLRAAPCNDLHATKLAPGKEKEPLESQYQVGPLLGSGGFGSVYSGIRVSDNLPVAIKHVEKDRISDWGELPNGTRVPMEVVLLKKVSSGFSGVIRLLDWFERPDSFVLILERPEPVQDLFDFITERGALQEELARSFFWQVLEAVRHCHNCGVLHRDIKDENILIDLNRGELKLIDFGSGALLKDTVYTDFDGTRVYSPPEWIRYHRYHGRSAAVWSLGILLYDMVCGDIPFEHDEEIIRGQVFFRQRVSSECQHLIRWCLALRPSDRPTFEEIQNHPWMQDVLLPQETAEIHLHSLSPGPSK
T15 sequence (Q8NI60 163-647): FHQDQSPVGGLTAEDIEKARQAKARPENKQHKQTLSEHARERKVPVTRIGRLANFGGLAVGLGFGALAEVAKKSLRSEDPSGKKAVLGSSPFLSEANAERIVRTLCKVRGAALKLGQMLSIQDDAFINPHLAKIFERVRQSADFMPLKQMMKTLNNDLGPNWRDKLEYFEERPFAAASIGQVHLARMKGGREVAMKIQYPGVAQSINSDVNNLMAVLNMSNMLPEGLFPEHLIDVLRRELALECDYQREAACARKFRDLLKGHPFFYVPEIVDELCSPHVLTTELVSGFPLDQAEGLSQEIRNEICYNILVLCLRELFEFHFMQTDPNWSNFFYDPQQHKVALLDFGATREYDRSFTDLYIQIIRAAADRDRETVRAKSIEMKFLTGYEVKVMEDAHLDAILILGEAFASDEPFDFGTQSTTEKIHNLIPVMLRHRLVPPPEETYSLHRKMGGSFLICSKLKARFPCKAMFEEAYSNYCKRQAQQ

**Q.** Which results are given for `CC(C)(C)CNCCn1c(Sc2cc3c(cc2I)OCO3)nc2c(N)ncnc21` [Compound 85]?
**A.** remaining binding at 10 µM (97 kinases [1]): 100%; remaining binding at 10 µM (97 kinases [2]): 100%; remaining binding at 10 µM (97 kinases [3]): 96%; remaining binding at 10 µM (97 kinases [4]): 99%; remaining binding at 10 µM (97 kinases [5]): 98%; remaining binding at 10 µM (97 kinases [6]): 100%; remaining binding at 10 µM (97 kinases [7]): 100%; remaining binding at 10 µM (97 kinases [8]): 99%; remaining binding at 10 µM (97 kinases [9]): 94%; remaining binding at 10 µM (97 kinases [10]): 98%; remaining binding at 10 µM (97 kinases [11]): 94%; remaining binding at 10 µM (97 kinases [12]): 100%; remaining binding at 10 µM (97 kinases [13]): 100%; remaining binding at 10 µM (97 kinases [14]): 100%; remaining binding at 10 µM (97 kinases [15]): 92%; remaining binding at 10 µM (97 kinases [16]): 97%; remaining binding at 10 µM (97 kinases [17]): 95%; remaining binding at 10 µM (97 kinases [18]): 83%; remaining binding at 10 µM (97 kinases [19]): 100%; remaining binding at 10 µM (97 kinases [20]): 63%; remaining binding at 10 µM (97 kinases [21]): 100%; remaining binding at 10 µM (97 kinases [22]): 100%; remaining binding at 10 µM (97 kinases [23]): 91%; remaining binding at 10 µM (97 kinases [24]): 100%; remaining binding at 10 µM (97 kinases [25]): 91%; remaining binding at 10 µM (97 kinases [26]): 96%; remaining binding at 10 µM (97 kinases [27]): 92%; remaining binding at 10 µM (97 kinases [28]): 93%; remaining binding at 10 µM (97 kinases [29]): 73%; remaining binding at 10 µM (97 kinases [30]): 88%; remaining binding at 10 µM (97 kinases [31]): 87%; remaining binding at 10 µM (97 kinases [32]): 63%; remaining binding at 10 µM (97 kinases [33]): 87%; remaining binding at 10 µM (97 kinases [34]): 100%; remaining binding at 10 µM (97 kinases [35]): 79%; remaining binding at 10 µM (97 kinases [36]): 51%; remaining binding at 10 µM (97 kinases [37]): 96%; remaining binding at 10 µM (97 kinases [38]): 96%
